Like-named read-outs stand apart in the source and are kept apart here.
Test system: AP-1 induced transcriptional activity
Experiment: Cellular Transrepressional Assay (AP-1 luciferase reporter in A549 cell, PMA activated)
Type: cell-based
Details: pAP-1-Luc; for Emax / AP-1 Max % inh (Cellular Transrepression Assay): maximum inhibition, PMA; for Emax: read-out: AP-1 Max % inh (Cellular Transrepression Assay); for EC50: 10 ng/ml PMA, 7 hours, read-out: AP-1 EC50, nM (Cellular Transrepression Assay)
Protocol: Cellular Transrepressional Assay
To measure the ability of test molecules to inhibit AP-1 induced transcriptional activity we utilized an A549 cell which was stably transfected with a plasmid containing 7×AP-1 DNA binding sites (pAP-1-Luc plasmid, Stratagene Co. La Jolla, Calif.) followed by the gene for luciferase. Cells were activated with 10 ng/ml of phorbol myristic acid (PMA) plus or minus test molecules for 7 hours. After 7 hours a luciferase reagent was added to measure luciferase enzymatic activity in the cell. After a 10 minute incubation of luciferase reagent with cells, luminescence was measured in a TopCount luminescence counter. Repression of AP-1 activity was calculated as the percentage decrease in the signal induced by PMA alone. Test molecules were analyzed in the concentration range from 0.1 nM to 40 μM. EC50s were determined by using standard curve fitting methods such as Excel fit (Microsoft Co.). An EC50 is the test molecule concentration at which there is a 50% repression of the maximal inhibition of transcription, i.e. a 50% reduction of AP-1 activity.

| Structure (SMILES) | EC50 (Homo sapiens, A549, 7 h) | EC50 | Emax (Homo sapiens, A549, 7 h) | AP-1 Max % inh (Cellular Transrepression Assay) |
| --- | --- | --- | --- | --- |
| CC(C)Oc1ccc(-c2ccc(C(c3ccccc3)C(C)(C)C(=O)Nc3nncs3)cn2)cc1 (stereo not drawn) [Example 33, 3-(6-(4-isopropoxyphenyl)-3-pyridinyl)-2,2-dimethyl-3-phenyl-N-1,3,4-thiadiazol-2-ylpropanamide] | 24 nM |  | 37.7% |  |
| CN(C)C(=O)c1ccc(-c2ccc(C(c3ccccc3)C(C)(C)C(=O)Nc3nncs3)s2)cc1Cl (stereo not drawn) [Example 43, 2-Chloro-4-(5-(2,2-dimethyl-3-oxo-1-phenyl-3-(1,3,4-thiadiazol-2-ylamino)propyl)-2-thienyl)-N,N-dimethylbenzamide] |  | 10.7 nM | 38.4% |  |
| CCN(C)C(=O)c1ccc(-c2ccc(C(c3ccccc3)C(C)(C)C(=O)Nc3nncs3)s2)cc1 (stereo not drawn) [Example 50, 4-(5-(2,2-dimethyl-3-oxo-1-phenyl-3-(1,3,4-thiadiazol-2-ylamino)propyl)-2-thienyl)-N-ethyl-N-methylbenzamide] | 13.2 nM |  | 39.6% |  |
| CN(C)C(=O)c1ccc(-c2ccc(C(c3ccccc3)C(C)(C)C(=O)Nc3nccs3)s2)cc1 (stereo not drawn) [Example 54, 4-(5-(2,2-Dimethyl-3-oxo-1-phenyl-3-(1,3-thiazol-2-ylamino)propyl)-2-thienyl)-N,N-dimethylbenzamide] | 9.45 nM |  | 62.4% |  |
| CN(C)C(=O)c1ccc(-c2ccc([C@H](c3cccc(F)c3)C(C)(C)C(=O)Nc3nncs3)s2)cc1Cl [Example 66, 2-chloro-4-(5-((1R)-1-(3-fluorophenyl)-2,2-dimethyl-3-oxo-3-(1,3,4-thiadiazol-2-ylamino)propyl)-2-thienyl)-N,N-dimethylbenzamide] | 5.16 nM |  | 50.4% |  |
| CCN(CC)C(=O)c1ccc(-c2ccc([C@H](c3cccc(F)c3)C(C)(C)C(=O)Nc3nncs3)s2)cc1Cl [Example 70, 2-chloro-N,N-diethyl-4-(5-((1R)-1-(3-fluorophenyl)-2,2-dimethyl-3-oxo-3-(1,3,4-thiadiazol-2-ylamino)propyl)-2-thienyl)benzamide] | 833 nM |  | 23% |  |
| CCN(C)C(=O)c1ccc(-c2ccc([C@H](c3cccc(F)c3)C(C)(C)C(=O)Nc3nncs3)s2)cc1F [Example 80, N-ethyl-2-fluoro-4-(5-((1R)-1-(3-fluorophenyl)-2,2-dimethyl-3-oxo-3-(1,3,4-thiadiazol-2-ylamino)propyl)-2-thienyl)-N-methylbenzamide] | 34.7 nM |  | 33.6% |  |
| CN(C)C(=O)c1ccc(-c2ccc(C(c3ccccc3)C(C)(C)C(=O)Nc3nncs3)s2)cc1Cl (stereo not drawn) [Example 86, 2-chloro-4-(5-(2,2-dimethyl-3-oxo-1-phenyl-3-(1,3,4-thiadiazol-2-ylamino)propyl)-2-thienyl)-N,N-dimethylbenzamide] |  | 53.9 nM |  | 36.20 % inh |
| CN(C)C(=O)c1ccc(-c2ccc(C(c3ccccc3)C(C)(C)C(=O)Nc3nncs3)s2)cc1 (stereo not drawn) [Example 87, 4-(5-(2,2-dimethyl-3-oxo-1-phenyl-3-(1,3,4-thiadiazol-2-ylamino)propyl)-2-thienyl)-N,N-dimethylbenzamide] | 8.49 nM |  | 41.1% |  |
| CCN(C)C(=O)c1ccc(-c2ccc(C(c3ccccc3)C(C)(C)C(=O)Nc3nncs3)s2)cc1 (stereo not drawn) [Example 88, 4-(5-(2,2-dimethyl-3-oxo-1-phenyl-3-(1,3,4-thiadiazol-2-ylamino)propyl)-2-thienyl)-N-ethyl-N-methylbenzamide] |  | 15.7 nM |  | 43.56 % inh |
| CN(C)C(=O)c1ccc(-c2ccc(C(c3cc(F)cc(F)c3)C(C)(C)C(=O)Nc3nncs3)s2)cc1 (stereo not drawn) [Example 90, 4-(5-(1-(3,5-difluorophenyl)-2,2-dimethyl-3-oxo-3-(1,3,4-thiadiazol-2-ylamino)propyl)-2-thienyl)-N,N-dimethylbenzamide] | 20.6 nM |  | 32.7% |  |
| C[C@@H](C(=O)Nc1nncs1)[C@@H](c1cccc(F)c1)c1ccc(Br)s1 [Example 96, (2R,3S)-3-(5-bromo-2-thienyl)-3-(3-fluorophenyl)-2-methyl-N-1,3,4-thiadiazol-2-ylpropanamide] | 71.1 nM |  | 27.4% |  |

Now from value to molecule, other results behind:

| EC50 (Homo sapiens, A549, 7 h) | EC50 | Structure (SMILES) | Emax (Homo sapiens, A549, 7 h) | AP-1 Max % inh (Cellular Transrepression Assay) |
| --- | --- | --- | --- | --- |
| 8.43 nM |  | CC(C)Oc1ccc(-c2ccc(C(c3cccc(F)c3)C(C)(C)C(=O)Nc3nncs3)s2)cc1 (stereo not drawn) [Example 38, 3-(3-fluorophenyl)-3-(5-(4-isopropoxyphenyl)-2-thienyl)-2,2-dimethyl-N-1,3,4-thiadiazol-2-ylpropanamide] | 23.1% |  |
| 18.8 nM |  | CC(C)Cc1ccc(-c2ccc(C(c3cccc(F)c3)C(C)(C)C(=O)Nc3nncs3)s2)cc1 (stereo not drawn) [Example 39, 3-(3-fluorophenyl)-3-(5-(4-isobutylphenyl)-2-thienyl)-2,2-dimethyl-N-1,3,4-thiadiazol-2-ylpropanamide] | 44.2% |  |
|  | 5.36 nM | CCCc1ccc(-c2ccc(C(c3cccc(F)c3)C(C)(C)C(=O)Nc3nncs3)s2)cc1 (stereo not drawn) [Example 40, -(3-fluorophenyl)-2,2-dimethyl-3-(5-(4-propylphenyl)-2-thienyl)-N-1,3,4-thiadiazol-2-ylpropanamide] |  | 37.26 % inh |
| 6.5 nM |  | CC(C)(C(=O)Nc1nncs1)C(c1cccc(F)c1)c1ccc(-c2ccc(C(=O)N3CCCC3)cc2)s1 (stereo not drawn) [Example 41, 3-(3-fluorophenyl)-2,2-dimethyl-3-(5-(4-(1-pyrrolidinylcarbonyl)phenyl)-2-thienyl)-N-1,3,4-thiadiazol-2-ylpropanamide] | 65.5% |  |
| 11.6 nM |  | CN(C)C(=O)c1ccc(-c2ccc(C(c3cccc(F)c3)C(C)(C)C(=O)Nc3nccs3)s2)cc1 (stereo not drawn) [Example 42, 4-(5-(1-(3-Fluorophenyl)-2,2-dimethyl-3-oxo-3-(1,3-thiazol-2-ylamino)propyl)-2-thienyl)-N,N-dimethylbenzamide] | 42.9% |  |
| 5.88 nM |  | CC(C)(C(=O)Nc1nncs1)C(c1ccccc1)c1ccc(-c2ccc(C(=O)N3CCOCC3)cc2)s1 (stereo not drawn) [Example 45, 2,2-dimethyl-3-(5-(4-(4-morpholinylcarbonyl)phenyl)-2-thienyl)-3-phenyl-N-1,3,4-thiadiazol-2-ylpropanamide] | 51% |  |
| 3.71 nM |  | CC(C)(C(=O)Nc1nncs1)C(c1ccccc1)c1ccc(-c2ccc(C(=O)N3CCCC3)cc2)s1 (stereo not drawn) [Example 47, 2,2-dimethyl-3-phenyl-3-(5-(4-(1-pyrrolidinylcarbonyl)phenyl)-2-thienyl)-N-1,3,4-thiadiazol-2-ylpropanamide] | 39.9% |  |
| 12.1 nM |  | CC(C)(C(=O)Nc1nncs1)C(c1ccccc1)c1ccc(-c2ccc(C(=O)N3CCOCC3)c(Cl)c2)s1 (stereo not drawn) [Example 52, 3-(5-(3-chloro-4-(4-morpholinylcarbonyl)phenyl)-2-thienyl)-2,2-dimethyl-3-phenyl-N-1,3,4-thiadiazol-2-ylpropanamide] | 38.5% |  |
| 3.04 nM |  | CC(C)(C(=O)Nc1nncs1)[C@@H](c1cccc(F)c1)c1ccc(-c2ccc(C(=O)N3CCOCC3)cc2)s1 [Example 64, (3R)-3-(3-Fluorophenyl)-2,2-dimethyl-3-(5-(4-(4-morpholinylcarbonyl)phenyl)-2-thienyl)-N-1,3,4-thiadiazol-2-ylpropanamide] | 53.8% |  |
| 7 nM |  | CN(C)C(=O)c1ccc(-c2ccc([C@H](c3cccc(F)c3)C(C)(C)C(=O)Nc3nncs3)s2)cc1 [Example 65, 4-(5-((1R)-1-(3-fluorophenyl)-2,2-dimethyl-3-oxo-3-(1,3,4-thiadiazol-2-ylamino)propyl)-2-thienyl)-N,N-dimethylbenzamide] | 49.6% |  |
| 12.8 nM |  | CC(C)(C(=O)Nc1nncs1)[C@@H](c1cccc(F)c1)c1ccc(-c2ccc(C(=O)N3CCOCC3)c(Cl)c2)s1 [Example 67, (3R)-3-(5-(3-chloro-4-(4-morpholinylcarbonyl)phenyl)-2-thienyl)-3-(3-fluorophenyl)-2,2-dimethyl-N-1,3,4-thiadiazol-2-ylpropanamide] | 51.2% |  |
| 7.31 nM |  | CCN(C)C(=O)c1ccc(-c2ccc([C@H](c3cccc(F)c3)C(C)(C)C(=O)Nc3nncs3)s2)cc1 [Example 68, N-ethyl-4-(5-((1R)-1-(3-fluorophenyl)-2,2-dimethyl-3-oxo-3-(1,3,4-thiadiazol-2-ylamino)propyl)-2-thienyl)-N-methylbenzamide] | 49.4% |  |
| 30.3 nM |  | CC(C)(C(=O)Nc1nncs1)[C@@H](c1cccc(F)c1)c1ccc(-c2ccc(C(=O)N3CCC(F)(F)C3)cc2)s1 [Example 79, (3R)-3-(5-(4-((3,3-difluoro-1-pyrrolidinyl)carbonyl)phenyl)-2-thienyl)-3-(3-fluorophenyl)-2,2-dimethyl-N-1,3,4-thiadiazol-2-ylpropanamide] | 42.6% |  |
| 16.6 nM |  | CC(C)(C(=O)Nc1nncs1)[C@@H](c1cccc(F)c1)c1ccc(-c2ccc(C(=O)N3CCOCC3)c(F)c2)s1 [Example 83, (3R)-3-(5-(3-Fluoro-4-(4-morpholinylcarbonyl)phenyl)-2-thienyl)-3-(3-fluorophenyl)-2,2-dimethyl-N-1,3,4-thiadiazol-2-ylpropanamide] | 32.7% |  |
| 2.41 nM |  | CC(C)(C(=O)Nc1nncs1)C(c1cc(F)cc(F)c1)c1ccc(-c2ccc(C(=O)N3CCOCC3)cc2)s1 (stereo not drawn) [Example 89, 3-(3,5-difluorophenyl)-2,2-dimethyl-3-(5-(4-(4-morpholinylcarbonyl)phenyl)-2-thienyl)-N-1,3,4-thiadiazol-2-ylpropanamide] | 36.7% |  |
